The values that follow come from patent US10287268B2, “Imidazolyl kinase inhibitors and uses thereof” (Dana-Farber Cancer Institute, Inc., priority 2014, dated 2019).

Holding throughout (assay type): biochemical
Experiment [1] addresses T1, BTK (Homo sapiens (Human), UniProt Q06187). In words: Protein kinase IC50 determination (method developed by Invitrogen Technology). The conditions noted are these: concentration of ATP: Km for ATP. The protocol: (§1) In some experiments, inhibitory activities of the compounds described herein against select protein kinases were determined as IC50 values (e.g., IC50 values in Table 3) using methods known in the art (e.g., the method developed by Invitrogen Technology).

In the next experiment the target is HCK (Homo sapiens (Human), UniProt P08631). Described as above. The conditions noted are these: concentration of ATP: Km for ATP. Here is the method: as §1
For the next experiment, the system named is VEG-FR. In words: Radiometric [γ-32P]ATP protein kinase assay (Hastie et al.), % activity vs DMSO control. Here is the method:
(§2) In another set of experiments, the activities of the compounds described herein against various protein kinases were determined according to the methods reported in Hastie et al., Nature Protocols, 2006, 1, 968-971.
(§3) This buffer consisted of 50 mM Tris-HCl, pH 7.5, 0.1 mM EGTA, 1 mg ml^−1 bovine serum albumin and 0.1% (vol/vol) 2-mercaptoethanol.
(§4) An assay buffer of 500 mM Tris-HCl, pH 7.5, 1 mM EGTA, and 100 mM magnesium acetate was used for assay of a wide variety of protein kinases. In some experiments, other cofactors were included (e.g., calcium ions and calmodulin were included for assay of calcium-calmodulin-dependent protein kinases).
(§5) The specific activity of the [γ-^32P] ATP solution was 1×10^5 to 1×10^6 c.p.m. per nmol depending on what was needed to produce an optimal signal/noise ratio. Stocks of nonradioactive (“cold”) ATP were dissolved in 10 mM HEPES, and the pH of the resulting stock solutions was adjusted to 7.4. To measure the concentration of ATP, a sample of such a stock solution was diluted to 20 μM, and the absorbance of the diluted sample was measured at 259 nm. The absorbance of a 20 μM stock solution of ATP at 259 nm was about 0.31. The 1-mM solution of cold ATP was “spiked” with [γ-^32P] ATP to produce a radioactivity of 1×10^5 to 1×10^6 c.p.m. per nmol.
(§6) 1) The number of assay samples needed was determined based on, e.g., the following considerations: (i) each condition was assayed in duplicate; (ii) two controls containing peptide or protein substrate and ATP but no protein kinase were included to assess contamination by any free ATP not incorporated into substrate, alongside two controls lacking a peptide or protein substrate but containing ATP and protein kinase to correct for any incorporation of phosphate into the kinase itself (e.g., autophosphorylation); and (iii) a maximum of 40 samples were assayed manually at one time by a single person. Microcentrifuge tubes were label distinctly and were placed on ice.
(§7) 2) Suspend a wire mesh basket in a beaker containing a magnetic stir bar and not less than 5 ml of 75 mM phosphoric acid per assay sample or a minimum volume of 100 ml. Place this on a magnetic stirrer behind a plexiglass shield.
(§8) 3) Label 2 cm×2 cm squares of phosphocellulose paper corresponding to the samples to be pipetted into each microcentrifuge tube. Label the phosphocellulose paper using pencil, which was not affected by the solvents used to wash the papers at the end of the assay.
(§9) 4) Dilute the protein kinase in enzyme dilution buffer and place on ice.
(§10) 5) Pipette 5 μl of 10× concentrated assay buffer, 5 μl peptide or protein substrate (the two “no-substrate” control tubes had 5 μl water added instead of peptide or protein substrate), and 30 μl distilled water into each tube. Keep the tubes on ice.
(§11) 6) Add 5 μl diluted protein kinase to each tube, except for the two “no-enzyme” control tubes, which had 5 μl enzyme dilution buffer added, and still keeping the tubes on ice. In some cases, premixed “cocktails” of assay components were prepared containing peptide or protein substrate, assay buffer, and distilled water to limit the number of additions to each assay tube.
(§12) 7) Insert each tube into the water bath at intervals of 15 s to allow the assay mixture to reach 30° C. Begin the protein kinase reactions by adding 5 μl of 1 mM [γ-^32P]ATP to each tube at intervals of 15 s. Close each tube, vortex for 1 s to mix the contents and immediately replace in a rack in the water bath. Incubate for 10 min at 30° C.
(§13) 8) At 10 min after the addition of ATP, remove each tube from the water bath at intervals of 15 s.
(§14) 9) “Spot” […] of each reaction mixture onto the center of a 2-cm square of P81 phosphocellulose paper using forceps to handle the paper squares. Immediately immerse the paper into the 75 mM phosphoric acid contained in the wire mesh basket suspended in the beaker that is being stirred continuously with a magnetic stirrer. This was be done within 1 to 2 s, as this step terminated the reaction. […]

A further experiment addresses Src (Homo sapiens (Human), UniProt P12931). The experiment is described as above. The conditions noted are these: read-out: Activity of the protein kinase when treated with compound I-1 (% control). The protocol:
as §2, §3, §4, §5, §6, §7, §8, §9, §10, §11, §12, §13, §14

For the next experiment, the target named is Lck (Homo sapiens (Human), UniProt P06239). The experiment is described as above. The conditions noted are these: read-out: Activity of the protein kinase when treated with compound I-1 (% control). Here is the method:
as §2, §3, §4, §5, §6, §7, §8, §9, §10, §11, §12, §13, §14

In experiment [2] the target is T1, BTK. Described as above. As to conditions: read-out: Activity of the protein kinase when treated with compound I-1 (% control). Here is the method:
as §2, §3, §4, §5, §6, §7, §8, §9, §10, §11, §12, §13, §14

Another experiment addresses FGF-R1 (Homo sapiens (Human), UniProt P11362). The experiment is described as above. As to conditions: read-out: Activity of the protein kinase when treated with compound I-1 (% control). Here is the method: as §2, §3, §4, §5, §6, §7, §8, §9, §10, §11, §12, §13, §14
The next experiment addresses TIE2 (Homo sapiens (Human), UniProt Q02763). The experiment is described as above. The conditions noted are these: read-out: Activity of the protein kinase when treated with compound I-1 (% control). Here is the method:
as §2, §3, §4, §5, §6, §7, §8, §9, §10, §11, §12, §13, §14

A further experiment addresses ABL (Homo sapiens (Human), UniProt P00519). The description is as above. As to conditions: read-out: Activity of the protein kinase when treated with compound I-1 (% control). The protocol:
as §2, §3, §4, §5, §6, §7, §8, §9, §10, §11, §12, §13, §14

The target of another experiment is EPH-A2 (Homo sapiens (Human), UniProt P29317). The description is as above. As to conditions: read-out: Activity of the protein kinase when treated with compound I-1 (% control). The protocol: as §2, §3, §4, §5, §6, §7, §8, §9, §10, §11, §12, §13, §14
A further experiment addresses EPH-B1 (Homo sapiens (Human), UniProt P54762). The description is as above. As to conditions: read-out: Activity of the protein kinase when treated with compound I-1 (% control). Here is the method:
as §2, §3, §4, §5, §6, §7, §8, §9, §10, §11, §12, §13, §14

The target of the next experiment is p38a MAPK (Homo sapiens (Human), UniProt Q16539). The experiment is described as above. The conditions noted are these: read-out: Activity of the protein kinase when treated with compound I-1 (% control). Here is the method:
as §2, §3, §4, §5, §6, §7, §8, §9, §10, §11, §12, §13, §14

For the next experiment, the target named is HER4 (Homo sapiens (Human), UniProt Q15303). Described as above. The conditions noted are these: read-out: Activity of the protein kinase when treated with compound I-1 (% control). Here is the method:
as §2, §3, §4, §5, §6, §7, §8, §9, §10, §11, §12, §13, §14

The target of another experiment is YES1 (Homo sapiens (Human), UniProt P07947). The experiment is described as above. The conditions noted are these: read-out: Activity of the protein kinase when treated with compound I-1 (% control). The protocol: as §2, §3, §4, §5, §6, §7, §8, §9, §10, §11, §12, §13, §14
The next experiment concerns the target CSK (Homo sapiens (Human), UniProt P41240). Described as above. As to conditions: read-out: Activity of the protein kinase when treated with compound I-1 (% control). Here is the method:
as §2, §3, §4, §5, §6, §7, §8, §9, §10, §11, §12, §13, §14

The target of a further experiment is BRK (Homo sapiens (Human), UniProt Q13882). The description is as above. The conditions noted are these: read-out: Activity of the protein kinase when treated with compound I-1 (% control). Here is the method: as §2, §3, §4, §5, §6, §7, §8, §9, §10, §11, §12, §13, §14
A further experiment deals with DDR2 (Homo sapiens (Human), UniProt Q16832). The description is as above. The conditions noted are these: read-out: Activity of the protein kinase when treated with compound I-1 (% control). Here is the method:
as §2, §3, §4, §5, §6, §7, §8, §9, §10, §11, §12, §13, §14

Where [3] appears, read: 0.1 μM of compound I-1, DMSO control = 100%.
Where [4] appears, read: 1 μM of compound I-1, DMSO control = 100%.

Sequence of HCK (P08631 whole entry): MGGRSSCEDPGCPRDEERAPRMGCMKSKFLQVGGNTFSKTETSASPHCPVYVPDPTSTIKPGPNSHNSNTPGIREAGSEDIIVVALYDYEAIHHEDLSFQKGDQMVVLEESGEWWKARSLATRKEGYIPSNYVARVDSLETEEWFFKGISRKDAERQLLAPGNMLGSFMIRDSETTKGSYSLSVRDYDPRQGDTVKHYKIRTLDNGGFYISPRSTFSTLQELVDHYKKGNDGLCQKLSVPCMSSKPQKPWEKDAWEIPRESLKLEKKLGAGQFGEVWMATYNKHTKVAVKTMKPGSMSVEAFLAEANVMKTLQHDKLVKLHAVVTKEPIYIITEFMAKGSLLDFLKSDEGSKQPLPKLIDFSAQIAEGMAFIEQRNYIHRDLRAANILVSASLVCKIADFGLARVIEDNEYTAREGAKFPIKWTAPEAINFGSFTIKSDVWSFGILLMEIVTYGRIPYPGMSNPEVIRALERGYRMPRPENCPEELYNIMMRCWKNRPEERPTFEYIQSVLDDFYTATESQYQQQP
T1 sequence (Q06187 whole entry): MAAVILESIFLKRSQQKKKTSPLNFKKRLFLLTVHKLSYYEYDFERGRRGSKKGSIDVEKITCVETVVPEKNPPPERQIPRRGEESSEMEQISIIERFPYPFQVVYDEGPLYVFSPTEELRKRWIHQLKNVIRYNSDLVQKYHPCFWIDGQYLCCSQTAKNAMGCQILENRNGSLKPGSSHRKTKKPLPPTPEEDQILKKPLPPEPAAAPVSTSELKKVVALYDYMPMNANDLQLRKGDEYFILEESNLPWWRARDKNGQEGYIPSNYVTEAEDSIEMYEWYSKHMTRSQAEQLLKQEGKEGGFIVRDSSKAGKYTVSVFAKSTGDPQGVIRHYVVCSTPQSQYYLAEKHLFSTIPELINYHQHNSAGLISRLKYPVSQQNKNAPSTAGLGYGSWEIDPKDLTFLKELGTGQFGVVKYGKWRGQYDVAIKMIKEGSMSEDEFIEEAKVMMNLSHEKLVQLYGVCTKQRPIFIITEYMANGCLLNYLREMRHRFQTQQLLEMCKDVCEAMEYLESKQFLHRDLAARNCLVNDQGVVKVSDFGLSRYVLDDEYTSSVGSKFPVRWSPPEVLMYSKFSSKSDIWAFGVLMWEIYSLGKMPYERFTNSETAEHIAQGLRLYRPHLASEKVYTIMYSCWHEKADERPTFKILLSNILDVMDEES
Sequence of HER4 (Q15303 26-1308): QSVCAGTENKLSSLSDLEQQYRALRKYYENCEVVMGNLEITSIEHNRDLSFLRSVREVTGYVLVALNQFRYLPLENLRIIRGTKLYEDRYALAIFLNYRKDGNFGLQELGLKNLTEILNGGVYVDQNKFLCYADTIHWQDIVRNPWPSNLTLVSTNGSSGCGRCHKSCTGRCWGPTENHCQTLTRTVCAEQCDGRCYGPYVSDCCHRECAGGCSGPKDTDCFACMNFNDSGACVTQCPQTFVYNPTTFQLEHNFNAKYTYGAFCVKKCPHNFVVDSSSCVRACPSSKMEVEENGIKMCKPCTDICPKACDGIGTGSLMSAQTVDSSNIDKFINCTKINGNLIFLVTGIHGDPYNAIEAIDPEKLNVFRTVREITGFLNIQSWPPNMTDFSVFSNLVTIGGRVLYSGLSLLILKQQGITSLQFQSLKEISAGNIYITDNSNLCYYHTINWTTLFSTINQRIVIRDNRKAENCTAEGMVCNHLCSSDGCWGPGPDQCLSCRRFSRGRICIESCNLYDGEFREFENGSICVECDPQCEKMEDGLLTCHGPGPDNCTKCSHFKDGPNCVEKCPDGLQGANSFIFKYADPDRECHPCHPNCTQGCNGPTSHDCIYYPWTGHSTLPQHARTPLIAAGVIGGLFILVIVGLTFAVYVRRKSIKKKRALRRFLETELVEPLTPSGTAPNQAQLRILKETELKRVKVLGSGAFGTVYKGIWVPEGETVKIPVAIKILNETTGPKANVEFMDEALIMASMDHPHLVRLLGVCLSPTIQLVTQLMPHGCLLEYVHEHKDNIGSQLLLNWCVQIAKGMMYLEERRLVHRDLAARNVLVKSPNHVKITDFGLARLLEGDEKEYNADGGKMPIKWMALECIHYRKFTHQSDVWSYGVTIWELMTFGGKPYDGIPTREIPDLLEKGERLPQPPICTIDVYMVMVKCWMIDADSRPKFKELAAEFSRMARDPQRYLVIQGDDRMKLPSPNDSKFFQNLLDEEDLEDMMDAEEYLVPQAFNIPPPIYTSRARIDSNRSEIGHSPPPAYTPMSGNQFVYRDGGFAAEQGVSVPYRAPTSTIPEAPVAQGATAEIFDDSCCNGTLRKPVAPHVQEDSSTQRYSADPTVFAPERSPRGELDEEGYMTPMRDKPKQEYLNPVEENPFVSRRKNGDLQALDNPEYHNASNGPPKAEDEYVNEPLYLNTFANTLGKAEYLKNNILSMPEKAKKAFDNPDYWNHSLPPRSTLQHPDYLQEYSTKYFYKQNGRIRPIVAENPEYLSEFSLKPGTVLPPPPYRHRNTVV
Sequence of FGF-R1 (P11362 22-822): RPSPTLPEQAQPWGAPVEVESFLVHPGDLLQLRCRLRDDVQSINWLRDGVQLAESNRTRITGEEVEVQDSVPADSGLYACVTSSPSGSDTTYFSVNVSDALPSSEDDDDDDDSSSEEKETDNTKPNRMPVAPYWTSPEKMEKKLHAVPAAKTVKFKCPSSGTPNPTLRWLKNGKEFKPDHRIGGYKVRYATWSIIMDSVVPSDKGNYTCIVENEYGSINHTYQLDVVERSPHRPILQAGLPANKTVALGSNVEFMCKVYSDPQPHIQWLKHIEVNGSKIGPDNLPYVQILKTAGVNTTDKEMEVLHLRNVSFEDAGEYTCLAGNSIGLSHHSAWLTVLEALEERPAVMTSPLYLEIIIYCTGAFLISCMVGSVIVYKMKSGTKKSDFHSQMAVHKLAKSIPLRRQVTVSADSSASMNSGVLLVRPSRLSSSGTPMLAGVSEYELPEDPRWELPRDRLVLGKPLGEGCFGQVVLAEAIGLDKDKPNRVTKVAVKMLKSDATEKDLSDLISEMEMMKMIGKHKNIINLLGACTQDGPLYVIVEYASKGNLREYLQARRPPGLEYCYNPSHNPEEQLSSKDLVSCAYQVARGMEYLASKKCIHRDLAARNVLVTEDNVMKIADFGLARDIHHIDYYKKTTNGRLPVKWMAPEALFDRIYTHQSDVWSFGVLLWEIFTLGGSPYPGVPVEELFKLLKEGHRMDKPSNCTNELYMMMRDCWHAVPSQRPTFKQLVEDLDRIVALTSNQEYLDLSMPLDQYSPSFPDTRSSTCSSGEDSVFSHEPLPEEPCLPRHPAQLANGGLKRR
Sequence of Src (P12931 whole entry): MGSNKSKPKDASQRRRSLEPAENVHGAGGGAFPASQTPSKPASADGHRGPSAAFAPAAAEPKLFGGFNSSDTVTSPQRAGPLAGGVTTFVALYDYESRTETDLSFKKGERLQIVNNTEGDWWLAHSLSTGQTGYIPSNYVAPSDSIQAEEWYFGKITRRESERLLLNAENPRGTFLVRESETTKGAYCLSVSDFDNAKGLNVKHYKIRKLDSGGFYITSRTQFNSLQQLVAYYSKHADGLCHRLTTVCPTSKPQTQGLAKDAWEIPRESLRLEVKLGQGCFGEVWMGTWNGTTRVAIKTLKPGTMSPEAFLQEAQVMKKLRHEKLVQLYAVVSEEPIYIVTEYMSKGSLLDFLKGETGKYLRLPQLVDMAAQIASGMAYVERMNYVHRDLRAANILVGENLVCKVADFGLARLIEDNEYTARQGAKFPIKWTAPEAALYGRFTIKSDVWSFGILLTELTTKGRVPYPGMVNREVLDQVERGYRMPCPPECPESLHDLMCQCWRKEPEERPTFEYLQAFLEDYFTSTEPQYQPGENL
Sequence of ABL (P00519 whole entry): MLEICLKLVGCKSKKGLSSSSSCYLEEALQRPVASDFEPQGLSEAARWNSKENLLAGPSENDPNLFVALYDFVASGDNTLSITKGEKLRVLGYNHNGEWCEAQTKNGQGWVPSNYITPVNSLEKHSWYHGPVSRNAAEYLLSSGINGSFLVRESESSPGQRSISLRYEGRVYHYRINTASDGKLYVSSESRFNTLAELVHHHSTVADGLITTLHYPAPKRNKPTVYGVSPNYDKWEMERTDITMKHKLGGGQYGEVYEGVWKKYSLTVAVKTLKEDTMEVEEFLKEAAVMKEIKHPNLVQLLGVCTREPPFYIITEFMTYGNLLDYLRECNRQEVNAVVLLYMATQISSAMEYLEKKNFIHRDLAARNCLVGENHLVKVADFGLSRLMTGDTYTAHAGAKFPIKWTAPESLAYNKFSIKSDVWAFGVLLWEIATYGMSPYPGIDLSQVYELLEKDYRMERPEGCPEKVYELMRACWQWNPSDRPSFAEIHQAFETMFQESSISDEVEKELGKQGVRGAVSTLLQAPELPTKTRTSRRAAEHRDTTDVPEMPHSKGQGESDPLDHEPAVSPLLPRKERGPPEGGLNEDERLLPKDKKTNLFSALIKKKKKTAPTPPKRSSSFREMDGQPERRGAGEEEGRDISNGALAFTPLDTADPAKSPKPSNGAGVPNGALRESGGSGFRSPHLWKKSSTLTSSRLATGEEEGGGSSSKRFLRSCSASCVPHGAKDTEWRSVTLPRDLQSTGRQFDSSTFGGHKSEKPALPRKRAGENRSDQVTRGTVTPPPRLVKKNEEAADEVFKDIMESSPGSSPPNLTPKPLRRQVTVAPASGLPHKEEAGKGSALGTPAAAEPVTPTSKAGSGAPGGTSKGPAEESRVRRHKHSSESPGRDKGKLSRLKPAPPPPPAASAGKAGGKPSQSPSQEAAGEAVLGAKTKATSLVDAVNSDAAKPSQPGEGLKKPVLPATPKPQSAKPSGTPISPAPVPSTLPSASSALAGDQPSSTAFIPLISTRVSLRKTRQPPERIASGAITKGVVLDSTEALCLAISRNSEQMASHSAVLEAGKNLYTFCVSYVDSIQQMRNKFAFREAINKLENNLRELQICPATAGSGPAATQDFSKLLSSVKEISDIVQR

Take `CCN1CCN(c2ccc(Nc3cc(-n4ccnc4Nc4c(C)cccc4C)ncn3)cc2)CC1` [Compound I-1, 6-(2-((2,6-Dimethylphenyl)amino)-1H-imidazol-1-yl)-N-(4-(4-ethylpiperazin-1-yl)phenyl)pyrimidin-4-amine]: the IC50 (commonly the concentration that gives 50% inhibition) against BTK [1] was determined as 0.338 µM; on HCK it was 0.111 µM. Further, the figures for the “Activity of the protein kinase when treated with compound I-1 (% control)” value in the experiment with VEG-FR (setting [3]) and in the experiment on VEG-FR (setting [4]) were 81 % control and 31 % control, respectively. Besides, the remaining activity at 0.1 µM at Src (setting [3]) is 43%; at Lck (setting [3]), 24%; at BTK [2] (setting [3]) it was 85%; on FGF-R1 (setting [3]), 67%; on TIE2 (setting [3]), 82%; on ABL (setting [3]) it was 84%. Moreover, the remaining activity at 0.1 µM at EPH-A2 (setting [3]) turned out to be 99%; at EPH-B1 (setting [3]), 86%; on p38a MAPK (setting [3]), 87%; on HER4 (setting [3]), 97%; on YES1 (setting [3]), 41%; on CSK (setting [3]), 94%. Also, the remaining activity at 0.1 µM is 74% at BRK (setting [3]) and 46% on DDR2 (setting [3]). The remaining activity at 1 µM is 13% on Src (setting [4]); 13% at Lck (setting [4]); 30% on BTK [2] (setting [4]); 30% on FGF-R1 (setting [4]); 85% at TIE2 (setting [4]); 48% on ABL (setting [4]). The remaining activity at 1 µM at EPH-A2 (setting [4]) came to 59%; at EPH-B1 (setting [4]), 16%; on p38a MAPK (setting [4]), 28%; on HER4 (setting [4]), 76%; on YES1 (setting [4]) it was 8%; on CSK (setting [4]), 67%. The remaining activity at 1 µM on BRK (setting [4]) was 16%; on DDR2 (setting [4]) it was 12%.
Take `COCCOc1ccc(Nc2cc(-n3ccnc3Nc3c(C)cccc3Cl)ncn2)cc1` [Compound I-2]: the figures for the IC50 against BTK [1] and at HCK were 1.86 µM and 0.307 µM, respectively.
For `COCCOc1ccc(Nc2cc(-n3ccnc3Nc3c(C)cccc3C)ncn2)cc1` [Compound I-3] the same measures were 9.98 µM and 2.42 µM.
For `Cc1cccc(Cl)c1Nc1nccn1-c1cc(Nc2cnn(C)c2)ncn1` [Compound I-4], in that order: more than 10 µM and 3 µM.
